These are literature values, as cited in patent publication US12251376B2, “Combinations with thiazolidinediones for use in the prevention or treatment of abnormal bone growth” (SERVIZO GALEGO DE SAÚDE (SERGAS), priority 2019, dated 2025).

SMILES strings stand for the structures. Values joined by “and” are separate entries in the source; they are usually repeats but may differ in a detail not shown here. Equal entries are not always repeated.

One data set has as its system abnormal bone growth. The note with it: for preventing recurrence of heterotopic ossification after total hip replacement: state of the art.
Assay in data set [1]: not given
The source holds these as a separate data set.

Assay in data set [2]: not given
This is another data set of the same source.

As to `CC(=O)Oc1ccccc1C(=O)O` [aspirin], the “preventing recurrence of heterotopic ossification after total hip replacement” value (from here on “preventing recurrence”) in the data set on abnormal bone growth is “some effect”.
In the case of `CC(C)Cc1ccc(C(C)C(=O)O)cc1` (centres unmarked) [ibuprofen], the “preventing recurrence” value with abnormal bone growth is “some effect”.
On to `COc1ccc2c(c1)c(CC(=O)O)c(C)n2C(=O)c1ccc(Cl)cc1` [indomethacin], for which the “reduction of abnormal bone growth (clinical data)” value in the data set on abnormal bone growth (75 mg retard administration) is “significantly reduce”. The “preventing recurrence” value in the data set on abnormal bone growth is “some effect”. The Bioavailability entry (oral) was “total”.
As to `CCc1ccc(CCOc2ccc(CC3SC(=O)NC3=O)cc2)nc1` (centres unmarked) [pioglitazone], the “doses shown safe in clinical trials” value in data set [1] is “up to 180 mg/day”. In addition, the solubility result in data set [2] is listed as “highly insoluble”. The Volume of distribution (in vivo) was 0.25 L/kg. For the same compound, where the note is “oral”, the Bioavailability is > 80% and ~83%; the “time of maximum plasma dose after oral administration” value was 2 h. Moreover, for the setting “tested from 2 mg to 60 mg”, the “increase of plasma concentration with dose” value is “Linear increase”.
